These are literature values, as cited in patent publication US10647856B2, “Mold resistant formable cork” (THE BOEING COMPANY, priority 2016, dated 2020).

Converted amounts (≈) assume the structure as drawn.

On to `O=[N+]([O-])c1ccc(O)cc1` [para-nitrophenol], for which the water solubility was 16 mg/mL (≈ 115 mM).
